According to US6046228A, “Anti-viral pharmaceutical compositions containing saturated 1,2-dithiaheterocyclic compounds and uses thereof” (priority 1999, dated 2000):
“And” between values parts separate entries of the source, which are not always exact repeats. Equal values may be shown once. Read-outs that look alike come from different tables or passages of the source.

How the values were obtained:
CEM-SS cells = experiment: XTT assay, cytotoxicity (IC50), CEM-SS cells; type: cell-based
Protocol: (§1) Initial anti-HIV screening was performed with CEM-SS cells and HIV-1RFusing the XTT cytoprotection assay as previously described (Weislow et al., J. National Cancer Inst. 81: 577-586, (1989)). HIV-1 isolates included common laboratory stains (RF, IIIB and MN), as well as a panel of HIV-1 clinical isolates (Cushman et al., J. Med. Chem. 37: 3040-3050, (1994)). The pyridone-resistant HIV-1A17 isolate (Nunberg et al., J. Virol., 65: 4887-4892 (1991)) was obtained from Emilio Emini at Merck Sharpe and Dohme Laboratories. Phytohemagglutinin-stimulated human peripheral blood lymphocytes (PBLs) and fresh monocyte-macrophage (Mono/MF) cultures were prepared and utilized in antiviral assays as previously described (Rice et al., Proc. Nat'l. Academy Science, USA 90: 9721-9724, (1993)); (Cushman et al., J. Med. Chem. 37: 3040-3050, (1994)). EC50 values for these cultures indicate the drug concentration that provided a 50% reduction in viral p24 production. […] The compounds can be synthesized according to the teachings of Singh et al., Sulfur Letters 8: 107-114, (1988). […] MT-2, MT-4, U1, HeLa-CD4-LTR-β-gal and 174xCEM cells were obtained from the AIDS Research and Reference Program (National Institute of Allergy and Infectious Disease, National Institutes of Health, Bethesda, Md. USA), as were the HIV-2MS and the AZT-resistant HIV-1G910-6 isolates.
(§2) Racemate and enantiomers of the cis-1,1-dioxo[1,2]dithiane-4,5-diol were synthesized and evaluated for antiviral activity in the XTT assay as described hereinabove.

HIV-1 p7NC protein = biological target: T1, HIV-1 p7NC protein (Human immunodeficiency virus type 1 group M subtype B, UniProt P04591); experiment: Trp37 zinc finger fluorescence assay (zinc ejection from p7NC); type: biochemical; details: for p7NC Trp37 Assay (RFU): 25 μM compound
T1 construct: recombinant HIV-1 p7NC protein
Protocol: Fluorescence measurements of the Trp^37 residue in the C-terminal zinc finger of the recombinant HIV-1 p7NC protein were performed as previously described (Rice et al., Science 270:1194, 1995). The p7NC protein was prepared at 20 μg/ml in 10 mM sodium phosphate buffer (pH 7.0), treated with 25 μM of each compound, then after indicated time intervals the samples were diluted 1/10 in 10 mM sodium phosphate buffer (pH 7.0) and the fluorescence intensity measured. The excitation and emission wavelengths utilized with the Shimadzu RF5000 spectrofluorimeter were 280 nm and 351 nm, respectively. In an alternate assay, the zinc-selective fluorescent probe N-(6-methoxy-8quinolyl-)-p-toluenesulfonamide (TSQ, Molecular Probes, Eugene, Oreg.) originally described by Fredrickson (J. Neurosci. Meth. 20:91, 1987) was utilized to measure zinc released from the p7NC protein in vitro. Briefly, 2 μM recombinant HIV-1 p7NC protein in 10 mM sodium phosphate buffer, pH 7.0, 10% glycerol was treated with 10 μM 624151 ([…] total volume in 96-well plates), and the time-dependent increase in fluorescence was measured on a Labsystems Fluoroskan II (360 nm excitation filter and 460 nm emission filter) over a period of 2 hours. Induction of alterations of p7NC proteins within intact virions involved treatment of HIV-1MN for 1 hour at 37° C. with 25 μM test compound. Samples were centrifuged 1 hour at 4° C. under 18,000×g to pellet the virus from the drug. Virus pellets were resolved by non-reducing SDS-PAGE and analyzed by immunoblot using monospecific rabbit antisera to the purified p7NC protein.
^b The percent decrease in RFU was calculated based on measurement of
the initial fluorescence of the p7NC protein before and 10 minutes after
treatment with the 25 μM of compound at ambient temperature.
The ability of 624151 to chemically interact with the zinc fingers of the HIV-1 p7NC protein was initially determined by a fluorescence assay (Rice et al., Science 270:1194-1197, (1995)) that measures a loss in intrinsic fluorescence of the tryptophan (Trp^37) residue in the second finger of the protein that occurs upon loss of zinc from the finger (Summers et al., Protein Sci. 1:563, 1992). […] As the 624151 modifies the zinc finger thiolates and the zinc is ejected over time, the metal is bound by the TSQ fluorochrome (FIG. 1(B)).
Sodium Phosphate buffer, pH 7.0 in 1 ml was treated with 25 μM of
compound. At indicated times, the mixture was diluted 1/10 and the
relative fluorescence units (RFU) measured in a Shimadzu RF5000
spectrofluorimeter with […] and Em = 351 mn. Following
loss of zinc from the Cterminal zinc finger, the Trp37 residue folds away
from the # aqueous environment and experiences a loss of fluorescence.

HIV-1 integrase = biological target: T2, HIV-1 integrase (Human immunodeficiency virus type 1 group M subtype B, UniProt P04585); experiment: HIV-1 integrase activity; type: biochemical; details: Table 6
T2 construct: the purified HIV-1 protease and integrase enzymes

HIV-1RF [1] = experiment: XTT cytoprotection (cytopathicity) anti-HIV assay, CEM-SS cells; type: cell-based
Protocol: as §1, §2

HIV-1RF [2] = experiment: effect of increasing multiplicity of infection, CEM-SS cells; type: cell-based; details: for EC50: Human immunodeficiency virus 1, CEM-SS
Protocol: Initial anti-HIV screening was performed with CEM-SS cells and HIV-1RFusing the XTT cytoprotection assay as previously described (Weislow et al., J. National Cancer Inst. 81: 577-586, (1989)). HIV-1 isolates included common laboratory stains (RF, IIIB and MN), as well as a panel of HIV-1 clinical isolates (Cushman et al., J. Med. Chem. 37: 3040-3050, (1994)). The pyridone-resistant HIV-1A17 isolate (Nunberg et al., J. Virol., 65: 4887-4892 (1991)) was obtained from Emilio Emini at Merck Sharpe and Dohme Laboratories. Phytohemagglutinin-stimulated human peripheral blood lymphocytes (PBLs) and fresh monocyte-macrophage (Mono/MF) cultures were prepared and utilized in antiviral assays as previously described (Rice et al., Proc. Nat'l. Academy Science, USA 90: 9721-9724, (1993)); (Cushman et al., J. Med. Chem. 37: 3040-3050, (1994)). EC50 values for these cultures indicate the drug concentration that provided a 50% reduction in viral p24 production. […] The compounds can be synthesized according to the teachings of Singh et al., Sulfur Letters 8: 107-114, (1988). The 4,5-cis-dihydroxy(1,1-dioxy-1,2,-dithiohexane) compound (NSC 624151) has been abbreviated as 624151 for convenience. MT-2, MT-4, U1, HeLa-CD4-LTR-β-gal and 174xCEM cells were obtained from the AIDS Research and Reference Program (National Institute of Allergy and Infectious Disease, National Institutes of Health, Bethesda, Md. USA), as were the HIV-2MS and the AZT-resistant HIV-1G910-6 isolates.

HIV-1 p66-p51 RT = biological target: T3, HIV-1 p66-p51 RT (Human immunodeficiency virus type 1 group M subtype B, UniProt P04585); experiment: reverse transcriptase activity assay; type: biochemical; details: nonphosphorylated control, in words
T3 construct: the purified HIV-1 p66-p51 RT enzyme
Protocol: The effects of 624151 on the in vitro activity of purified RT was determined by measurement of incorporation of [^3 H]TTP onto the poly(rA):oligo(dT)(rAdT) or poly(rC):oligo(dG)(rCdG) homopolymer template/primer systems. Samples (5 μL) were blotted onto DE81 paper, washed with 5% dibasic sodium phosphate as previously described (Buckheit et al., Antiviral Res. 21:247, (1993)), and then quantitated on a Packard Matrix 9600 dual beam counter. 3'-Azido-3'-deoxythymidine-5 '-triphosphateand UC38 (NSC 629243) served as positive controls for inhibition of RT. HIV-1 protease activity was quantitated by a reversed phase HPLC assay utilizing the […]Amide substrate (Multiple Peptide Systems, San Diego, Calif.) as previously described in Rice et al. (Proc. Nat'l. Academy of Science USA 9: 9721-9724, (1993)).

[3] = test system: attachment of HIV-1 to fresh human PBLs; experiment: virus attachment assay, HIV-1RF to PBLs (p24-based); type: cell-based; details: control; 30 min
Protocol: Binding of HIV-1RF to PBLs was measured by a p24-based assay (Rice, et al., Proc. Nat'l. Academy of Science USA 90: 9721-9724, (1993)). Briefly, 5×10^5 PBLs were incubated with a concentrated stock of virus for 30 min. at 37° C. in the absence or presence of various concentrations of 624151, the unbound virus was washed away, and the cell-associated virus was solubilized in 1% Triton X-100, 1% BSA and analyzed by the p24 antigen capture assay as previously described. The binding of gp120to CD4 was analyzed using an antigen capture ELISA. All steps of the assay were carried out according to the manufacturer's protocols.
^.dagger. Attachment of HIV1 to fresh human PBLs, binding of gp120 to […]

[4] = Homo sapiens, CEM-SS, Table 5, cytotoxicity, read-out: IC50 Mean
[5] = Human immunodeficiency virus 1, CEM-SS, Table 5, read-out: EC50 Mean

Compound: O=S1(=O)C[C@H](O)[C@H](O)CS1 (single isomer, unassigned) [NSC 693194, (+)-cis-4,5-Dihydroxy-1,2-dithiane 1,1-dioxide]
- IC50 (CEM-SS cells; Homo sapiens, CEM-SS, Table 5, cytotoxicity, read-out: IC50 Duplicates): 134 µM
- IC50 (CEM-SS cells; [4]): 134 µM
- IC50 (CEM-SS cells; Homo sapiens, CEM-SS, cytotoxicity, CEM-SS cells, read-out: XTT Assay IC50): 134 µM
- IC50 (CEM-SS cells; Table 5, cytotoxicity, listed as 693194, read-out: IC50 Duplicates): 133 µM
- p7NC Trp37 Assay (RFU) (HIV-1 p7NC protein; 0 min, listed as 693194): 280 RFU
- p7NC Trp37 Assay (RFU) (HIV-1 p7NC protein; 3 min, listed as 693194): 146 RFU
- p7NC Trp37 Assay (RFU) (HIV-1 p7NC protein; 10 min, listed as 693194): 75 RFU
- p7NC Trp37 Assay (RFU) (HIV-1 p7NC protein; 30 min, listed as 693194): 41 RFU
- inhibition of HIV-1 integrase (HIV-1 integrase): NI100
- EC50 (HIV-1RF [1]; Human immunodeficiency virus 1, CEM-SS, CEM-SS cells, HIV-1RF, read-out: XTT Assay EC50): 16 µM
- EC50 (HIV-1RF [1]; [5]): 16.2 µM
- EC50 (HIV-1RF [1]; Table 5, listed as 693194, read-out: EC50 Duplicates): 18.6 µM and 13.7 µM

Compound: O=S1(=O)C[C@H](O)[C@H](O)CS1 (single isomer, unassigned) [NSC 693195, (-)-cis-4,5-Dihydroxy-1,2-dithiane 1,1-dioxide]
- IC50 (CEM-SS cells; Table 5, cytotoxicity, listed as 693195, read-out: IC50 Duplicates): 129 µM and 135 µM
- IC50 (CEM-SS cells; Table 5, cytotoxicity, listed as 693195, read-out: IC50 Mean): 132 µM
- IC50 (CEM-SS cells; cytotoxicity, CEM-SS cells, read-out: XTT Assay IC50): 132 µM
- p7NC Trp37 Assay (RFU) (HIV-1 p7NC protein; 0 min, listed as 693195): 279 RFU
- p7NC Trp37 Assay (RFU) (HIV-1 p7NC protein; 3 min, listed as 693195): 117 RFU
- p7NC Trp37 Assay (RFU) (HIV-1 p7NC protein; 10 min, listed as 693195): 69 RFU
- p7NC Trp37 Assay (RFU) (HIV-1 p7NC protein; 30 min, listed as 693195): 45 RFU
- inhibition of HIV-1 integrase (HIV-1 integrase): NI100
- EC50 (HIV-1RF [1]; CEM-SS cells, HIV-1RF, read-out: XTT Assay EC50): 8.8 µM
- EC50 (HIV-1RF [1]; Table 5, listed as 693195, read-out: EC50 Duplicates): 9.04 µM and 8.64 µM
- EC50 (HIV-1RF [1]; Table 5, listed as 693195, read-out: EC50 Mean): 8.8 µM
- EC50 relative to enantiomer or racemate (HIV-1RF [1]; in words): about half that of the (+) enantiomer

Compound: Cc1cn([C@H]2C[C@H](N=[N+]=[N-])[C@@H](CO)O2)c(=O)[nH]c1=O [AZT, 3'-azido-3'-deoxythymidine]
- EC50 (HIV-1RF [2]; MOI 0.01): 0.019 µM
- EC50 (HIV-1RF [2]; MOI 0.02): 0.024 µM
- EC50 (HIV-1RF [2]; MOI 0.04): 1.57 µM
- EC50 (HIV-1RF [2]; MOI 0.08): > 10 µM
- EC50 (HIV-1RF [2]; MOI 0.16): > 10 µM
- EC50 (HIV-1RF [2]; MOI 0.32): > 10 µM
- EC50 (HIV-1RF [2]; lowest MOI): 0.0189 µM
- effect of increasing the MOI on activity (HIV-1RF [2]; in words): completely inactive after only a six-fold increase in the MOI
- IC50 (CEM-SS cells; [4]): > 1 µM
- loss of Trp37 fluorescence of p7NC (HIV-1 p7NC protein; FIG. 1(A), 25 μM, in words): not by AZT control
- EC50 (HIV-1RF [1]; Human immunodeficiency virus 1, CEM-SS, Table 5, read-out: EC50 Duplicates): 0.0054 µM
- EC50 (HIV-1RF [1]; [5]): 0.0056 µM
- EC50 (HIV-1RF [1]; Table 5, read-out: EC50 Duplicates): 0.0057 µM
- inhibition of RT activity (HIV-1 p66-p51 RT): not inhibitory

Compound: dextran sulfate [reference compound]
- virion binding ID50 [3]: 1.8 µg/mL
- IC50 Duplicates (CEM-SS cells; Table 5, cytotoxicity): > 95 µg/mL
- IC50 Mean (CEM-SS cells; Table 5, cytotoxicity): > 95 µg/mL
- EC50 Mean (HIV-1RF [1]; Table 5): 0.76 µg/mL
